In PubChem BioAssay (NCI):
Several values for one entry are separate records, joined by “and”; a condition that tells them apart may be missing. Equal values may be shown once.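 Results reflect a 48-hour exposure of cells in 96-well plates to compound at five concentrations. The concentration for 50% growth inhibition is given as GI50. TGI: total growth inhibition.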

Tests used:
Experiment in all cases: NCI anticancer screen, dose series, 48 h
[1] = system: SNB-19 CNS
[2] = system: OVCAR-3 ovarian
[3] = system: OVCAR-5 ovarian
[4] = system: MALME-3M melanoma
[5] = system: HCT-116 colon
[6] = system: RPMI-8226 leukemia
[7] = system: K-562 leukemia
[8] = system: LOX IMVI melanoma
[9] = system: ACHN renal
[10] = system: A549 NSCLC

Row | SMILES | GI50 [1] | TGI [1] | GI50 [2] | TGI [2] | GI50 [3] | TGI [3] | GI50 [4] | TGI [4] | GI50 [5] | TGI [5] | GI50 [6] | TGI [6] | GI50 [7] | TGI [7] | GI50 [8] | TGI [8] | GI50 [9] | TGI [9] | GI50 [10] | TGI [10]
1 | c1ccc(-c2[nH]ncc2-c2ccnc(-c3ccc(OCCN4CCOCC4)cc3)c2)nc1 | > 25 µM | > 25 µM | > 25 µM | > 25 µM | > 25 µM | > 25 µM | > 25 µM | > 25 µM | > 25 µM | > 25 µM | > 25 µM | > 25 µM | 13.2 µM | > 25 µM | > 25 µM | > 25 µM | > 25 µM | > 25 µM | > 25 µM | > 25 µM
2 | COc1ccc(OC)c(Nc2nc3nonc3nc2Nc2cccc(Br)c2)c1 | 0.692 µM | 19.1 µM | 0.6 µM | 21.6 µM | 2.56 µM | > 100 µM | 0.471 µM | 5.52 µM | 0.53 µM | > 100 µM | 0.309 µM | 3.05 µM | 0.556 µM | 17.5 µM | 1.93 µM | > 100 µM | 0.927 µM | 13.3 µM | 0.713 µM | > 100 µM
3 | O=C(O)CCC(c1ccccc1)(c1ccccc1)c1ccccc1 | – | > 100 µM | – | > 69.6 µM | – | > 100 µM | – | > 100 µM | 43.6 µM | > 100 µM | – | > 94.3 µM | – | > 100 µM | – | > 100 µM | – | > 100 µM | – | > 100 µM
4 | Cc1cccc(C)c1NC(=O)CCC(=O)NC(N)=NC#N | – | > 100 µM | – | > 100 µM | – | > 100 µM | – | > 100 µM | – | > 100 µM | – | > 100 µM | – | > 100 µM | – | > 100 µM | – | > 100 µM | – | > 100 µM
5 | O=C(/C=C/c1ccccc1)c1cccc2ccccc12 | 4.1 µM | 15.3 µM | 2.01 µM | 4.71 µM | 3.78 µM | 17.4 µM | 6.12 µM | 22.4 µM | 1.96 µM | 4.1 µM | 1.93 µM | 5.86 µM | 1.61 µM | 5.26 µM | 1.6 µM | 4.69 µM | 3.66 µM | 14.3 µM | 2.96 µM | 10.3 µM
6 | C[C@]12CC[C@H](O[C@@H]3O[C@H](CO[C@@H]4O[C@H](CO)[C@@H](O)[C@H](O)[C@H]4O)[C@@H](O)[C@H](O)[C@H]3O)C[C@@H]1CC[C@@H]1[C@@H]2CC[C@]2(C)[C@@H](C3=CC(=O)OC3)CC[C@]12O | – | > 100 µM | – | > 74.1 µM | – | > 76.6 µM | – | 38.1 µM | – | 34.9 µM | – | > 87.9 µM | – | > 100 µM | – | 65.6 µM | – | > 100 µM | – | 15.9 µM
7 | CC[C@@H](C)/C=C(C)/C=C/C(=O)c1c(O)c(-c2ccc(OC(=O)[C@@]34CC[C@@](C)(C(=O)O3)C4(C)C)cc2)cn(O)c1=O | 2.66 µM | > 50 µM | 1.04 µM | > 50 µM | 2.79 µM | > 50 µM | 1.5 µM | > 50 µM | 1.47 µM | > 50 µM | 2.49 µM | > 50 µM | 1.57 µM | > 50 µM | 0.961 µM | > 50 µM | 1.32 µM | 11.6 µM | 4.27 µM | > 50 µM
8 | C#C[C@@]1(O)[C@@H](CO)O[C@@H](n2cc(Br)c3c(Cl)ccnc32)[C@@H]1O | 1.54 µM | > 100 µM | 0.621 µM | > 75 µM | 1.96 µM | > 100 µM | 32.3 µM | > 100 µM | 0.859 µM | > 100 µM | 1.73 µM | 5.97 µM | 0.542 µM | > 100 µM | 0.289 µM | 2.15 µM | 1.74 µM | > 100 µM | 7.01 µM | > 100 µM
9 | O/N=C(\CC(O)(C(F)(F)F)C(F)(F)F)c1cccs1 | – | > 10 µM | – | > 10 µM | – | > 10 µM | – | > 10 µM | – | > 10 µM | – | > 10 µM | – | > 10 µM | – | > 10 µM | – | > 10 µM | – | > 10 µM
10 | CC1OC(n2cc(C(F)(F)F)c(=O)[nH]c2=O)C=CC1=O (stereo not given) | – | 30.6 µM | – | 31.9 µM | – | 33.5 µM | – | 34.2 µM | – | 29.7 µM | – | 37.4 µM | – | > 100 µM | – | 33 µM | – | 31.4 µM | – | > 100 µM
11 | O=C(NC1CC1)c1c(O)[nH]c(=S)[nH]c1=O | – | > 100 µM | – | > 100 µM | – | > 100 µM | – | > 100 µM | – | > 100 µM | – | > 100 µM | – | > 100 µM | – | > 100 µM | – | > 100 µM | – | > 100 µM
12 | Cc1cc(O)ccc1C1=NN(c2ccc(S(N)(=O)=O)cc2)C(=O)CC1 | 27.4 µM and 20.3 µM | 50 µM and > 100 µM | 2.69 µM and 8.06 µM | 29.9 µM and 71 µM | > 100 µM | > 100 µM | – | 50 µM and 59.7 µM | 3.5 µM and 7.27 µM | 50 µM and > 100 µM | 2.35 µM and 2.76 µM | 50 µM and 23.6 µM | 3 µM and 2.68 µM | 50 µM and > 100 µM | 10.8 µM and 29.7 µM | 50 µM and > 100 µM | 19.3 µM and 38.3 µM | 50 µM and > 100 µM | 14 µM and 15.3 µM | 50 µM and > 100 µM
13 | Cc1ccc(S(=O)(=O)OCOS(=O)(=O)c2ccc(C)cc2)cc1 | – | > 100 µM | – | > 100 µM | – | > 100 µM | – | > 100 µM | – | > 100 µM | – | > 100 µM | – | > 100 µM | – | > 100 µM | – | > 100 µM | – | > 100 µM
14 | O=c1nc2sc3ccccc3c(=O)n2[nH]1 | – | > 100 µM | – | > 100 µM | – | > 100 µM | – | > 100 µM | – | > 100 µM | – | > 100 µM | – | > 100 µM | – | > 100 µM | – | > 100 µM | – | > 100 µM
15 | CC1(C)C(=O)OC(n2cc(F)c(=O)[nH]c2=O)C1=O (stereo not given) | – | > 100 µM | – | > 100 µM | – | > 100 µM | – | > 100 µM | – | > 100 µM | – | > 100 µM | – | > 100 µM | – | > 100 µM | – | > 100 µM | – | > 100 µM
16 | C=C1C(=O)O[C@H]2[C@H]1CC/C(COC(=O)c1cccnc1N)=C\CC[C@@]1(C)O[C@@H]21 | 8.65 µM | 28.5 µM | 1.04 µM | 2.88 µM | 6.95 µM | 21.7 µM | 1.91 µM | 6.65 µM | 0.36 µM | 1.26 µM | 0.365 µM | 2.54 µM | 0.396 µM | 14.1 µM | 3.18 µM | 14 µM | 1.03 µM | 10.3 µM | 3.77 µM | 16.5 µM
